Key:
mitochondrial complex I = details: 2011 NIH study; cited from earlier work
fathead minnows = fathead minnows exposed to the piscicide in 100-gallon laboratory tanks (effective amount of ammonium chloride); format: in vivo
Experimental: During each replicate trial, ten fathead minnows were exposed to the pisticide over a four hour period in 100-gallon laboratory tanks at 20° C.

SMILES | role in inhibiting mitochondrial complex I among 31 tested piscicides (mitochondrial complex I) | effective amount of ammonium chloride alone (approximate same effect) (fathead minnows)
C=C(C)[C@H]1Cc2c(ccc3c2O[C@@H]2COc4cc(OC)c(OC)cc4[C@@H]2C3=O)O1 [Rotenone] | greatest role in inhibiting mitochondrial complex I | –
Cl.N [ammonium chloride] | – | 0.6-0.8 grams per gallon

— patent US20200170256A1, “Amonia Based Piscicide” (priority 2018, published 2020)
